Laboratory results taken from ChEMBL document CHEMBL3856240, “Structural determinants of diphenethylamines for interaction with the κ opioid receptor: Synthesis, pharmacology and molecular modeling studies” (Bioorg Med Chem Lett, 2016).

How the values were obtained:
[1] = molecular target: T1, Kappa-type opioid receptor (Homo sapiens, UniProt P41145); conditions: CHO
Description: Antagonist activity at human kappa opioid receptor expressed in CHO cell membranes assessed as inhibition of U69,593 stimulated [35S]GTPgammaS binding after 60 mins

Mu-type opioid receptor = Mu-type opioid receptor (Homo sapiens, UniProt P35372); assay: Displacement of [3H]DAMGO from human mu opioid receptor expressed in CHO cell membranes after 60 mins by liquid scintillation counting
Mu-type opioid receptor, sequence (P35372 whole entry): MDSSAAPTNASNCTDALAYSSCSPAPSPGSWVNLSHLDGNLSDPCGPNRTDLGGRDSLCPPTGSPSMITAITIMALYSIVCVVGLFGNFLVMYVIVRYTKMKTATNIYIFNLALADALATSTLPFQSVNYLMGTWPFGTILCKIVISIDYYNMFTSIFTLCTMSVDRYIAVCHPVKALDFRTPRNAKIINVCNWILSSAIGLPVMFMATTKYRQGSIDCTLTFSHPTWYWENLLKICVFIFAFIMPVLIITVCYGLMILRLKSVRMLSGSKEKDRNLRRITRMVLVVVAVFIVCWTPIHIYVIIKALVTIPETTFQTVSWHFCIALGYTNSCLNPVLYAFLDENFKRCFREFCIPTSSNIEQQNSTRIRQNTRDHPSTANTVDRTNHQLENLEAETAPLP

[2] = molecular target: Delta-type opioid receptor (Homo sapiens, UniProt P41143); assay: Displacement of [3H]pCl-DPDPE from human delta opioid receptor expressed in CHO cell membranes after 60 mins by liquid scintillation counting
Delta-type opioid receptor, sequence (P41143 whole entry): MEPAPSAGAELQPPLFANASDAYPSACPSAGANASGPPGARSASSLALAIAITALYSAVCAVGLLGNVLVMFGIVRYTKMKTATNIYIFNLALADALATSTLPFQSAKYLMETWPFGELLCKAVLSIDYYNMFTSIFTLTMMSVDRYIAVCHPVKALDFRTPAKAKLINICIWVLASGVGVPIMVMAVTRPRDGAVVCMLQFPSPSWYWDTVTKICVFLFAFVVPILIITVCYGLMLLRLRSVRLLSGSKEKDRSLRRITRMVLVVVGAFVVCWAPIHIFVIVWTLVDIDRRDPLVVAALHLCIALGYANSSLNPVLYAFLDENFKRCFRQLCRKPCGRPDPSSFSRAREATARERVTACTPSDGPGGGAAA

[3] = molecular target: T1, Kappa-type opioid receptor; assay: Displacement of [3H]U69,593 from human kappa opioid receptor expressed in CHO cell membranes after 60 mins by liquid scintillation counting
[4] = molecular target: T1, Kappa-type opioid receptor; assay: Agonist activity at human kappa opioid receptor expressed in CHO cell membranes after 60 mins by [35S]GTPgammaS assay
[5] = molecular target: T1, Kappa-type opioid receptor; assay: Agonist activity at human kappa opioid receptor expressed in CHO cell membranes after 60 mins by [35S]GTPgammaS assay relative to U69,593; conditions: 1 h, read-out: %max

T1 sequence (P41145 whole entry): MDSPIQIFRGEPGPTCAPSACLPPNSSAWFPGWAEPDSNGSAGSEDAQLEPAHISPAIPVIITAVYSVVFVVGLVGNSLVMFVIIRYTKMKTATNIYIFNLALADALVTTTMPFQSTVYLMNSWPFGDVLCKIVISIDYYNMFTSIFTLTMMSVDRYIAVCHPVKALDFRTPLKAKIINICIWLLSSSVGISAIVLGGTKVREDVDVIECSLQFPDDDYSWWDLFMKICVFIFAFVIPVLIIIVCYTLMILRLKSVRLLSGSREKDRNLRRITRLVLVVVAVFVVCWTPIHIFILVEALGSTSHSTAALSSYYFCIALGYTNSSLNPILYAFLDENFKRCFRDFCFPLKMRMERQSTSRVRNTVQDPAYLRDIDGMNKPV

Oc1cccc(CCN(CCc2ccccc2)CCc2ccccc2)c1
Ke [1]: 1310 nM | Ki (Mu-type opioid receptor): > 10000 nM | Ki [2]: > 10000 nM | Ki [3]: 211 nM | EC50 [4]: > 10000 nM

Oc1ccc(CCN(CCc2ccccc2)CC2CC2)cc1
Ke [1]: 32.1 nM | Ki (Mu-type opioid receptor): 1750 nM | Ki [2]: 2190 nM | Ki [3]: 218 nM | EC50 [4]: > 10000 nM

Oc1ccc(CCN(CCc2ccccc2)CC2CCC2)cc1
Ki (Mu-type opioid receptor): 731 nM | Ki [2]: 2130 nM | Ki [3]: 36.3 nM | Emax [5]: 43.8% | EC50 [4]: 109 nM
